From PMC12058161, “The plant matrix of Artemisia annua L. for the treatment of malaria: Pharmacodynamic and pharmacokinetic studies” (PLOS One, 2025)
“And” between values parts separate entries of the source, which are not always exact repeats. Equal values may be shown once.

Legend:
in vivo = settings: male, Sprague Dawley, rat, po, 352 mg/kg
Method: (§1) Blood samples were centrifuged at 3500 rpm for 5 min at 4°C. All plasma samples were then stored at -80°C until analysis.
(§2) All samples were stored in a refrigerator at -80°C and thawed at room temperature before processing. A 50 μL aliquot of plasma was added with 5 μL of the standard solution (or acetonitrile) and 100 μL of internal standard solution in turn, vortexed and mixed, then sonicated for 3 min, centrifuged at 14000 rpm for 10 min at low temperature. The supernatant was transferred to an autosampler vial and analyzed by UHPLC-ESI-MS/MS.
(§3) The mobile phase consisted of 0.1% formic acid solution (A) and acetonitrile (B).
(§4) The ESI ionization source was used and detected in MRM mode.
(§5) All data were presented as mean ± SD. Pharmacokinetic parameters including half-life (t1/2), maximum plasma time (Tmax) and concentration (Cmax), area under concentration-time curve (AUC0-t and AUC0-∞), clearance (CL), steady-state volume of distribution (Vz), and mean residence time (MRT) were analyzed by non-compartmental method using DAS Version 2.0 (Chinese Pharmacological Society, Beijing, China). […] The data were analyzed by Student’s t-test for two groups and one-way analysis of variance for multiple groups; p < 0.05 was considered statistically significant.

[1] = male, Sprague Dawley, rat, in vivo, po, 352 mg/kg
Method: as §1, §2, §3, §4, §5

P-glycoprotein (P-gp) = molecular target: T1, P-glycoprotein (P-gp) (Homo sapiens, UniProt P08183); test: Rhodamine 123 (P-gp substrate) transport across drug-treated Caco-2 cell monolayers; format: cell-based; settings: co-incubated with R123, 10 μM, Caco-2 monolayer, Fig 6
T1 construct: The transport of R123 in normal Caco-2 cell monolayers or drug-treated Caco-2 cell monolayers was further studied; host or cells: Caco-2
Description: The human epithelial cell line Caco-2 serves as a widely recognized model for the intestinal epithelial barrier, frequently utilized in the assessment of drug absorption and transport mechanisms. In this study, we evaluated drug absorption and distribution in vitro with the help of the Caco-2 cell model. Caco-2 cells were purchased from the Chinese Academy of Medical Sciences (Beijing, China, Resource No. 3111C0001CCC000100). The cells were resuscitated and inserted into culture flasks. Caco-2 cells were passaged with DMEM high glucose medium containing 10% (V/V) FBS, 1% (V/V) non-essential amino acid solution and 100 U/mL penicillin-streptomycin double antibiotic solution, and cultured at 37°C in a 5% CO2 incubator. […] The integrity of the cell monolayer was checked by measuring the transmembrane electrical resistance (TEER) of the monolayer cells with a Millicell-ERS electrode (Millipore Corp., Billerica, MA, USA). Caco-2 cells were used for transport experiments 17–21 days after inoculation. Besides, only monolayers with TEER values above 400 Ω/cm^2 were used in the study.
The transport of R123 in normal Caco-2 cell monolayers or drug-treated Caco-2 cell monolayers was further studied. […] The transport buffer containing 5 μM of R123 was added on either the AP or the BL side of the inserts, as described above. […] The concentrations of R123 were immediately analyzed by SpectraMax iD3. The excitation wavelength was set at 485 nm, and the emission wavelength at 535 nm. Papp values across the cell monolayers were calculated according to the equation: Papp = dQ/dt × 1/(A × C0), where dQ/dt represents the rate of drug transport. […] The efflux ratio was calculated using the Papp (BL-AP) to Papp (AP-BL) ratio.

[2] = Stability of the five compounds in SD rat plasma (QC samples, UHPLC-ESI-MS/MS); format: in vitro ADME; settings: for mean measured concentration: rat plasma, mean of 5; for stability, Accuracy (measured versus nominal concentration) / stability, mean ± SD (measured concentration): SD rat plasma, n=5
Method: The method was validated according to the US Food and Drug Administration (FDA) Bioanalytical Method Validation Guidance as follows: [1] specificity was assessed by analyzing blank plasma, blank plasma spiked with standard solutions and rat plasma samples after oral administration. Each calibration curve was plotted using the concentration of the standard solution as the horizontal coordinate and the ratio of analyte to internal standard peak area as the vertical coordinate. The lower limit of quantification (LLOQ) refers to the lowest concentration, which is typically 10 times the signal-to-noise ratio. It has an acceptable accuracy of ± 20% and a precision of less than 20% [3]. Quality Control (QC) samples (low, medium and high concentrations) were prepared for each analyte. Five samples were analyzed at each concentration level and three consecutive batches were determined to calculate the accuracy and precision of the method. Extraction recovery was assessed by the ratio of the average peak area of routinely prepared QC samples (low, medium, and high concentrations) to the post-extraction plasma sample. Likewise, matrix effect was assessed by the ratio of peak areas between post-extraction samples spiked with analytes and mobile phases spiked with the same concentration of analytes.

Caco-2 cells = test: Cytotoxicity in Caco-2 cells, CCK-8 assay; format: cell-based, human; settings: for Cell survival rate%: mean; for cck-8 mean (survival fraction): mean of 6
Method: Caco-2 cells were cultured in 96-well plates for 48 h at a seeding density of 5.0 × 10^3 cells/well before the addition of drugs. […] The final concentration of DMSO was 0.05% (v/v). Experiments were initiated by replacing the culture medium in each well with 100 μL of sample solutions at 37°C in the CO2 incubator. After 48 h of incubation, the medium was removed and 10 μL of CCK-8 reagent in the serum-free medium was added to each well. The plates were then incubated at 37°C for another 2 h. At the end of the incubation period, the plates were quantified by reading the absorbance at 450 nm on a micro-plate multi-detection instrument, SpectraMax iD3 with SoftMax® Pro (Molecular Devices Corporation Sunnyvale, CA, USA). The percentage of cell viability was calculated based on the absorbance measured relative to the absorbance of cells exposed to the negative control.

[3] = nominal 160 ng/mL, 3 freeze-thaw cycles
[4] = nominal 160 ng/mL, 7 days at -80°C
[5] = nominal 160 ng/mL, Room temperature 24h
[6] = nominal 1000 ng/mL, 3 freeze-thaw cycles
[7] = nominal 1000 ng/mL, 7 days at -80°C
[8] = nominal 1000 ng/mL, Room temperature 24h
[9] = nominal 5000 ng/mL, 3 freeze-thaw cycles
[10] = nominal 5000 ng/mL, 7 days at -80°C
[11] = nominal 5000 ng/mL, Room temperature 24h
[12] = Caco-2, concentration 10 μmol/L
[13] = Caco-2, concentration 20 μmol/L
[14] = Caco-2, concentration 40 μmol/L
[15] = Caco-2, concentration 80 μmol/L

T1 sequence (P08183 whole entry): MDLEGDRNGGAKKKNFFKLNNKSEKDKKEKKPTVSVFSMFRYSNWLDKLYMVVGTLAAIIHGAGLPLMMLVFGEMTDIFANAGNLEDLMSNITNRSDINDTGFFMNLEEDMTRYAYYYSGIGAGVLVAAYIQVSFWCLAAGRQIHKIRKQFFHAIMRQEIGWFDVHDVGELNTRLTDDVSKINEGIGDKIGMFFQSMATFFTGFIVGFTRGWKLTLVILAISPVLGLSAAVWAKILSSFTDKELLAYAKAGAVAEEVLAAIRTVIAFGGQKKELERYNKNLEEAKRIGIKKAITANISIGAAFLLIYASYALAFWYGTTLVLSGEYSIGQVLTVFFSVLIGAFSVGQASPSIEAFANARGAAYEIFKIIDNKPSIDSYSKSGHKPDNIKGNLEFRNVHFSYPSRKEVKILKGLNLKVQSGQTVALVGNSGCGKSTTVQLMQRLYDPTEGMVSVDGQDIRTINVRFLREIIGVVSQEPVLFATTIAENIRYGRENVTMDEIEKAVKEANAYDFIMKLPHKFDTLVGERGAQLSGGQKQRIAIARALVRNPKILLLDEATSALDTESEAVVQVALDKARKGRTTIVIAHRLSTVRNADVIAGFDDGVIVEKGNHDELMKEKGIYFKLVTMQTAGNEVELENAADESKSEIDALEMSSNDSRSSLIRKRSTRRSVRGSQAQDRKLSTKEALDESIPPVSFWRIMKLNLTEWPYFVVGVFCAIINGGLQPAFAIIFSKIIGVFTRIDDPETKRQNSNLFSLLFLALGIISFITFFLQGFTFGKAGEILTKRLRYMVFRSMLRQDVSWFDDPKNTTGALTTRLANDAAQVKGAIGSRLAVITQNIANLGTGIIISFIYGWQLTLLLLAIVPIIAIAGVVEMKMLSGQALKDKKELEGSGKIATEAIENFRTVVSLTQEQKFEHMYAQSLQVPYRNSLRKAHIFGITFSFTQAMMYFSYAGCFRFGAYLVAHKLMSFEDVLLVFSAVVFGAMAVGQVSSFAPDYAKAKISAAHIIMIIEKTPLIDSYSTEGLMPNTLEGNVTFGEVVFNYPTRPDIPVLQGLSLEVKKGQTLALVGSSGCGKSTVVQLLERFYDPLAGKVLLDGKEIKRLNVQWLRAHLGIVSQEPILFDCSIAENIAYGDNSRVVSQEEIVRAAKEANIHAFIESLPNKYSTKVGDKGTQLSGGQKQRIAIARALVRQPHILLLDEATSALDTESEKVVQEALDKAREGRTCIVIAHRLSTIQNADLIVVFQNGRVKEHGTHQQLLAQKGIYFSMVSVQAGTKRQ

C=C(C(=O)O)[C@@H]1CC[C@@H](C)[C@@H]2CCC(C)=C[C@@H]21 [AA, Artemisinic acid]
AUC(0-inf) (in vivo): 23700 ± 4990 ng·h/mL | AUC(0-t) (in vivo): 23000 ± 4720 ng·h/mL | Cmax (in vivo; Cmax): 5370 ± 590 ng/mL | half-life (in vivo; t1/2): 4.29 ± 1.37 h | CL [1]: 0.001 ± 0.001 L/h | CLz [1]: 24 mL/day/kg | reduction of R123 transport from the BL side to the AP side (P-glycoprotein (P-gp)): 26.82% | mean measured concentration ([2]; AA QC 160ng, 3 freeze-thaw cycles): 175.436 ng/mL | mean measured concentration ([2]; AA QC 160ng, 7 days at -80°C): 168.832 ng/mL | mean measured concentration ([2]; AA QC 160ng, Room temperature 24h): 151.908 ng/mL | mean measured concentration ([2]; AA QC 1000ng, 3 freeze-thaw cycles): 947.702 ng/mL | mean measured concentration ([2]; AA QC 1000ng, 7 days at -80°C): 919.418 ng/mL | mean measured concentration ([2]; AA QC 1000ng, Room temperature 24h): 955.778 ng/mL | mean measured concentration ([2]; AA QC 5000ng, 3 freeze-thaw cycles): 4777.45 ng/mL | mean measured concentration ([2]; AA QC 5000ng, 7 days at -80°C): 4737.9 ng/mL | mean measured concentration ([2]; AA QC 5000ng, Room temperature 24h): 4689.24 ng/mL | stability, Accuracy (measured versus nominal concentration) [2, 3]: 109.65% | stability, mean ± SD (measured concentration) [2, 3]: 175 ± 7.36 ng/mL | stability, Accuracy (measured versus nominal concentration) [2, 4]: 105.52% | stability, mean ± SD (measured concentration) [2, 4]: 169 ± 8.62 ng/mL | stability, Accuracy (measured versus nominal concentration) [2, 5]: 94.94% | stability, mean ± SD (measured concentration) [2, 5]: 152 ± 6.95 ng/mL | stability, Accuracy (measured versus nominal concentration) [2, 6]: 94.77% | stability, mean ± SD (measured concentration) [2, 6]: 948 ± 56.6 ng/mL | stability, Accuracy (measured versus nominal concentration) [2, 7]: 91.94% | stability, mean ± SD (measured concentration) [2, 7]: 919 ± 34.8 ng/mL | stability, Accuracy (measured versus nominal concentration) [2, 8]: 95.58% | stability, mean ± SD (measured concentration) [2, 8]: 956 ± 68.0 ng/mL | stability, Accuracy (measured versus nominal concentration) [2, 9]: 95.55% | stability, mean ± SD (measured concentration) [2, 9]: 4777 ± 82.6 ng/mL | stability, Accuracy (measured versus nominal concentration) [2, 10]: 94.76% | stability, mean ± SD (measured concentration) [2, 10]: 4738 ± 174 ng/mL | stability, Accuracy (measured versus nominal concentration) [2, 11]: 93.78% | stability, mean ± SD (measured concentration) [2, 11]: 4689 ± 298 ng/mL | Cell survival rate%, single replicate (Caco-2 cells; Caco-2, 5μmol/L): 86.78% and 81.42% and 81.32% and 82.7% and 86.07% and 80.23% | Cell survival rate%, single replicate (Caco-2 cells; Caco-2, 10μmol/L): 83.23% and 82.76% and 85.19% and 84.02% and 81.01% (2×) | Cell survival rate%, single replicate (Caco-2 cells; Caco-2, 20μmol/L): 82.79% and 80.95% and 80.96% and 82.01% and 83.04% and 83.63% | Cell survival rate%, single replicate (Caco-2 cells; Caco-2, 40μmol/L): 79.21% and 80.38% and 82.01% and 81.79% and 85.15% and 82.39% | Cell survival rate%, single replicate (Caco-2 cells; Caco-2, 80μmol/L): 81.2% and 78.64% and 82.71% and 80.82% and 78.89% and 79.03% | cck-8 cell survival as fraction, single replicate (Caco-2 cells; Caco-2, concentration 5 μmol/L): 0.8678 and 0.8142 and 0.8132 and 0.827 and 0.8607 and 0.8023 | Cell survival rate% (Caco-2 cells; Caco-2, concentration 5 μmol/L): 83.09% | cck-8 mean (survival fraction) (Caco-2 cells; Caco-2, concentration 5 μmol/L): 0.83 | cck-8 cell survival as fraction, single replicate (Caco-2 cells; [12]): 0.8323 and 0.8276 and 0.8519 and 0.8402 and 0.8101 | Cell survival rate% (Caco-2 cells; [12]): 82.87% | cck-8 mean (survival fraction) (Caco-2 cells; [12]): 0.83 | cck-8 cell survival as fraction, single replicate (Caco-2 cells; [13]): 0.8279 and 0.8095 and 0.8096 and 0.8201 and 0.8304 and 0.8363 | Cell survival rate% (Caco-2 cells; [13]): 82.23% | cck-8 mean (survival fraction) (Caco-2 cells; [13]): 0.82 | cck-8 cell survival as fraction, single replicate (Caco-2 cells; [14]): 0.7921 and 0.8038 and 0.8201 and 0.8179 and 0.8515 and 0.8239 | Cell survival rate% (Caco-2 cells; [14]): 81.82% | cck-8 mean (survival fraction) (Caco-2 cells; [14]): 0.82 | cck-8 cell survival as fraction, single replicate (Caco-2 cells; [15]): 0.812 and 0.7864 and 0.8271 and 0.8082 and 0.7889 and 0.7903 | Cell survival rate% (Caco-2 cells; [15]): 80.22% | cck-8 mean (survival fraction) (Caco-2 cells; [15]): 0.80
